“And” between values parts separate entries of the source, which are not always exact repeats. Equal values may be shown once. “Also recorded” adds a separate entry of the source.
What was measured:
apo e−/− mice [1] = experiment: Blood chemistry and histopathology of treated apo e−/− mice; format: in vivo; conditions: 8 mg/kg/day or 40 mg/kg/day
Experimental: (§1) Animals were treated with test compounds by intraperitoneal injection daily for 7 days. A range of doses was administered. Control animals received vehicle alone. The effect of quinazoline derivatives on total cholesterol, LDL, HDL, liver enzymes, and glucose was analyzed. The mice tissues were also examined histologically.
Serum levels alanine aminotransferase (ALT), alkaline phosphatase (ALP), lactate dehydrogenase (LDH), blood urea nitrogen (BUN), creatinine, creatinine phosphokinase (CPK), and glucose were determined by using a Synchron CX5 Clinical System (Beckman Instruments, Inc., Fullerton, Calif.) following manufacturer's instructions. For the glucose tolerance test, blood glucose levels were determined using the portable One Touch Profile glucose meter (Lifescan, Milpitas, Calif., USA).
(§2) At the end of the experiment, the animals were sacrificed and the harvested tissues were fixed in 10% phosphate buffered formalin overnight, embedded, sectioned, and stained by hematoxylin and eosin (H&E). The stained sections were examined for pathological changes. For Oil Red O staining, the liver was excised and snap frozen in liquid nitrogen. Five micrometer thick sections were obtained using the LeicaCM1800 cryostat (Heerbrugg, Switzerland), stained in 0.5% Oil Red O in propylene glycol for 1 hour, destained in 85% propylene glycol for 1 minute, rinsed twice in distilled water, counterstained in Mayer's hematoxylin for a few seconds, rinsed twice in distilled water, and mounted in Crystalmount (Biomedia Corp., Foster City, Calif.). The Oil Red O stainable material at 400 X magnification was quantitated using the ImagePro plus program (Media Cybernetics, Silver Spring, Md., USA) in conjunction with a 3CCD camera (DAGE-MTI Inc., Michigan City, USA).

apo e−/− mice [2] = experiment: In vivo hepatic VLDL-TG production using Triton WR1339 in apo e−/− mice
Experimental: (§3) C57B⅙ and apoE-deficient mice were treated with intraperitoneal injections of 50 μl vehicle or 40 mg/kg WHI-P164 in 50 μl vehicle for 7 consecutive days, followed by a 36 hour fast to shut down intestinal chylomicron synthesis. […] Blood samples were taken at 0 and 4 hours after Triton WR1339 injection and plasma TG levels were measured enzymatically using a commercially available enzymatic kit (Sigma Chemical Co.). Alternatively, food was returned to the mice after a 36 hour fast and blood samples were collected at 0, 1, 3, 6, and 9 hours after returning the food. Accumulation of chylomicron-TG was determined as accumulation of plasma TG.
To determine if WHI-P164 prevent hepatic TG accumulation by relieving 9 block in VLDL-TG secretion or by inhibiting upstream TG synthesis, in vivo hepatic VLDL-TG synthesis was analyzed. Synthesis was determined by following the accumulation of VLDL-TG after shutting down VLDL catabolism with Triton WR1339 injection and intestinal chylomicron synthesis with a 36 hours fast.
C57B⅙ and apoE-deficient mice were treated with intra peritoneal injections of vehicle or 40 mg/kg WHI-P164 (in 50 μl vehicle) for 7 consecutive days, followed by a 36 hour fast to shut down intestinal chylomicron synthesis. […] Blood samples (50 μl) were taken at 0 and 4 hours after Triton WR1339 injection and plasma TG was measured enzymatically using a commercially available enzymatic kit (Sigma Chemical Co.), as previously reported (Kuipers, supra).

[3] = tested on: hypercholesterolemic C57B⅙ mice; experiment: Serum total cholesterol in hypercholesterolemic C57B⅙ mice on Paigen's cocoa butter diet; format: in vivo; conditions: 1.6 mg/kg/day
Experimental: Three- to four-week old C57B⅙ male mice (Taconic, Germantown, N.Y., USA) were kept in micro-isolator cages on a 12-hour day/night cycle and fed the Paigen's cocoa butter diet (15.8% fat, 1.25% cholesterol, and 0.5% sodium cholate) (Harlan Teklad, Madison, Wis., USA) for two weeks prior to initiation of lipid lowering therapy. Paigen's diet is described in Nishina et.al., 1993, J. Lipid Res. 34: 1413-1422.
as §1
(§4) Serum total cholesterol was measured enzymatically using the cholesterol kit from Sigma Chemical Co. (St. Louis, Mo., USA). For liver tissue lipid measurements, lipids were extracted from homogenized hepatic tissues using the method of Bligh and Dyer (Bligh, et al., Can. J. Biochem. Phys. 1959, 37:911-917). One gram of liver tissue was homogenized in 1 ml of distilled water and extracted with 4 ml of chloroform/methanol (1:1, v/v). The chloroform phase containing the lipids was evaporated under a stream of nitrogen, the lipids dissolved in 100 μL of isopropanol, and subjected to cholesterol determination as described above. Triglyceride (TG) contents were determined using the TG kit from Sigma Chemical Co.
A high cholesterol and high fat diet was used to induce hypercholesterolemia in C57B⅙mice, using the methods described by Paigen, et al. (Nishina, et al., 1993, J. Lipid Res. 34:1413-1422) and as described for Example 1.

apo e−/− mice [4] = experiment: Hepatic and plasma lipids (Oil Red O staining, tissue lipid extraction) in apo e−/− mice on Western diet; format: in vivo; conditions: 40 mg/kg/day for 1 week
Experimental: as §4, §2
apo e^−/− mice accumulate large amounts of TG-rich lipid droplets in their livers, due a blocked VLDL-TG secretion (Kuipers et al., 1997, J. Clin. Invest. 100:2915-2922). […] When tissue lipids were measured, there was a 22% reduction in hepatic cholesterol 39% reduction in hepatic triglycerides.

C57B⅙ mice = experiment: Postprandial triglyceride accumulation after 36 hour fast; format: in vivo; conditions: 40 mg/kg/day for 7 days
Experimental: FIG. 5 is a graph showing inhibition of postprandial triglyceride accumulation by WHI-P164 treatment. C57B⅙ mice were treated with WHI-P164 at 40 mg/kg/day for 7 days, and fasted 36 hours with continuing treatment. […].
as §3
Inhibition reached statistical significance at 6 hours in vehicle treated mice having a plasma TG level of 272±25 mg/dL, n=5, as compared to a plasma TG level of 155±32 mg/dL, n=5, p=0.004 in WHI-P164 treated mice.

## COc1cc2ncnc(C(=O)c3cccc(Br)c3)c2cc1OC [WHI-P164, 4-(3′-bromobenzoyl)-6,7-dimethoxyquinazoline]
Apo e−/− mice [1]
  Clinical or laboratory signs of toxicity: not associated with any obvious clinical or laboratory signs of toxicity
  Histopathologic examination of tissues: did not reveal any drug related toxic lesions
  Liver enzymes (ALT, AST, ALP, LDH), CPK levels, and BUN/Creatinine: remained within normal limits
Apo e−/− mice [2]; apo e−/− (C57B1/6), 40 mg/kg i.p. 7 days, 36 hour fast
  Triglyceride, Pre-Triton WR 1339: 155 ± 14 (n = 10) mg/dL
Apo e−/− mice [2]; apo e−/− (C57B1/6), 40 mg/kg i.p. 7 days, 36 hour fast, 4 hours after Triton WR1339
  Triglyceride, Post-Triton WR 1339: 465 ± 46 (n = 8) mg/dL
Apo e−/− mice [2]; apo e−/− mice, 40 mg/kg, versus vehicle
  Accumulation of VLDL-TG after Triton WR1339 treatment: significantly less accumulation of VLDL-TG than vehicle-treated control mice
[3]; apo e+/+ C57B1/6 mice, cocoa butter diet two weeks, then drug 1 week at 1.6 mg/kg/day i.p.
  Serum total cholesterol: 348.6 ± 27.6 mg/dL and 349 ± 28 mg/dL
[3]; hypercholesterolemic C57B⅙ mice, one week, versus untreated
  Reduction in mean serum total cholesterol: 23%
Apo e−/− mice [4]
  Oil Red O stainable lipid material in liver: 658±256 red pixels/field
  hepatic cholesterol: 51.4 ± 4.4 mg/g wet wt
  hepatic triglycerides: 211.6 ± 27 mg/g wet wt
  plasma FFA: 3.6 ± 0.3 mM
  plasma TG: 165 ± 19 mg/dL
Apo e−/− mice [4]; versus vehicle
  Reduction in hepatic cholesterol: 22%
  Reduction in hepatic triglycerides: 39%
  Reduction of liver lipid material (image analysis): 75%
C57B⅙ mice; 6 hours after returning food to 36 hours fasted mice
  Plasma TG level: 155 ± 32 mg/dL
C57B⅙ mice; C57B⅙ mice, fasted 36 hours, versus vehicle, 40 mg/kg/day
  Postprandial triglyceride accumulation: much reduced postprandial triglyceride accumulation; also recorded: Postprandial accumulation was inhibited
